“Also recorded” adds a separate entry of the source.
B1: second gene fragment: fragment from base 1 to base 1092 of SEQ ID NO: 1, not encoding SEQ ID NO: 2 (nucleic acid)
DNA: GACCTTGTGAGGACTAGAGGAAGAATGCTCCTGGCTGTTTTGTACTGCCTGCTGTGGAGTTTCCAGACCTCCGCTGGCCATTTCCCTAGAGCCTGTGTCTCCTCTAAGAACCTGATGGAGAAGGAATGCTGTCCACCGTGGAGCGGGGACAGGAGTCCCTGTGGCCAGCTTTCAGGCAGAGGTTCCTGTCAGAATATCCTTCTGTCCAATGCACCACTTGGGCCTCAATTTCCCTTCACAGGGGTGGATGACCGGGAGTCGTGGCCTTCCGTCTTTTATAATAGGACCTGCCAGTGCTCTGGCAACTTCATGGGATTCAACTGTGGAAACTGCAAGTTTGGCTTTTGGGGACCAAACTGCACAGAGAGACGACTCTTGGTGAGAAGAAACATCTTCGATTTGAGTGCCCCAGAGAAGGACAAATTTTTTGCCTACCTCACTTTAGCAAAGCATACCATCAGCTCAGACTATGTCATCCCCATAGGGACCTATGGCCAAATGAAAAATGGATCAACACCCATGTTTAACGACATCAATATTTATGACCTCTTTGTCTGGATGCATTATTATGTGTCAATGGATGCACTGCTTGGGGGATCTGAAATCTGGAGAGACATTGATTTTGCCCATGAAGCACCAGCTTTTCTGCCTTGGCATAGACTCTTCTTGTTGCGGTGGGAACAAGAAATCCAGAAGCTGACAGGAGATGAAAACTTCACTATTCCATATTGGGACTGGCGGGATGCAGAAAAGTGTGACATTTGCACAGATGAGTACATGGGAGGTCAGCACCCCACAAATCCTAACTTACTCAGCCCAGCATCATTCTTCTCCTCTTGGCAGATTGTCTGTAGCCGATTGGAGGAGTACAACAGCCATCAGTCTTTATGCAATGGAACGCCCGAGGGACCTTTACGGCGTAATCCTGGAAACCATGACAAATCCAGAACCCCAAGGCTCCCCTCTTCAGCTGATGTAGAATTTTGCCTGAGTTTGACCCAATATGAATCTGGTTCCATGGATAAAGCTGCCAATTTCAGCTTTAGAAATACACTGGAAGGATTTGCTAGTCCACTTACTGGGATAGCGGAT
B2: 400 base pair fragment: fragment corresponding to bases 711 to 1152 of SEQ ID NO: 1 (nucleic acid)
DNA: AAACTTCACTATTCCATATTGGGACTGGCGGGATGCAGAAAAGTGTGACATTTGCACAGATGAGTACATGGGAGGTCAGCACCCCACAAATCCTAACTTACTCAGCCCAGCATCATTCTTCTCCTCTTGGCAGATTGTCTGTAGCCGATTGGAGGAGTACAACAGCCATCAGTCTTTATGCAATGGAACGCCCGAGGGACCTTTACGGCGTAATCCTGGAAACCATGACAAATCCAGAACCCCAAGGCTCCCCTCTTCAGCTGATGTAGAATTTTGCCTGAGTTTGACCCAATATGAATCTGGTTCCATGGATAAAGCTGCCAATTTCAGCTTTAGAAATACACTGGAAGGATTTGCTAGTCCACTTACTGGGATAGCGGATGCCTCTCAAAGCAGCATGCACAATGCCTTGCACATCTATATGAATGGAACAATGTCCCAG

Columns and labels:
Format in all cases: cell-based, human
[1] = tested on: cytolytic T cell clone CTL IVSB; test: 51Cr release assay on peptide-sensitized HLA-A2 presenting cells with CTL IVSB; settings: SK29-MEL 1.218 and T202LB; peptide 100 μM down to 0.01 μM; E/T ratio 40/1; four hours
Experimental: (§1) Using the methodologies described in examples 1-5, various fragments of the CDNA were cotransfected with a gene for HLA-A2 in COS-7 cells, and TNF release assays were performed. […] The 400 base fragment used corresponded to bases 711 to 1152 of SEQ ID NO: 1. The amino acid sequence for which the fragment codes was deduced, and this sequence was then compared to the information provided by Hunt et al., Science 255: 1261 (1992), and Falk et al., Nature 351: 290 (1991), the disclosures of which are both incorporated by reference in their entirety. These references discuss consensus sequences for HLA-A2 presented peptides. Specifically, Hunt discusses nonapeptides, where either Leu or Ile is always found at the second position, Leu being the “dominant residue”. The ninth residue is described as always being a residue with an aliphatic hydrocarbon side chain. Val is the dominant residue at this position. […]
(§2) The tyrosinase loss variants, cytolytic T cell clones, and peptides were incubated for one hour in a solution containing ^51Cr, at 37° C., either with or without anti HLA-A2 antibody MA2.1, which was used to stabilize empty HLA-A2 molecules. […] After 30 minutes, effector cells were added at an E/T ratio of 40/1 and four hours later, 10λ of supernatant were collected and radioactivity counted.

[2] = tested on: cytolytic T cell clone CTL 2/9; test: 51Cr release assay on peptide-sensitized HLA-A2 presenting cells with CTL 2/9; settings: SK29-MEL 1.218 and T202LB; peptide 100 μM down to 0.01 μM; E/T ratio 40/1; four hours
Experimental: as §1, §2

[3] = tested on: CTL clone CTL 210/9; test: Parallel peptide recognition experiment with CTL 210/9
Experimental: as §1
as §2, with “counted. […]” for “counted.”

[4] = tested on: CTL 210/9; test: TNF release by CTL 210/9 on COS-7 cells cotransfected with HLA-A2 and cDNA pool or fragment; settings: COS-7 cotransfected with cDNA fragment and HLA-A2
Experimental: (§3) The amplified plasmids were then transfected into eukaryotic cells. Samples of COS-7 cells were seeded, at 15,000 cells/well into tissue culture flat bottom microwells, in Dulbeco's modified Eagles Medium (“DMEM”) supplemented with 10% fetal calf serum. The cells were incubated overnight at 37° C., medium was removed and then replaced by 30 μl/well of DMEM medium containing 10% Nu serum, 400 μg/ml DEAE-dextran, 100 μM chloroquine, 100 ng of plasmid pcDNA-I/Amp-A2 and 100 ng of DNA of a pool of the cDNA library described supra. Plasmid pcDNA-I/Amp-A2 contains the HLA-A2 gene from SK29-MEL. Following four hours of incubation at 37° C, the medium was removed, and replaced by 50 μl of PBS containing 10% DMSO. This medium was removed after two minutes and replaced by 200 μl of DMEM supplemented with 10% of FCS.
(§4) Following this change in medium, COS cells were incubated for 48 hours at 37° C. Medium was then discarded, and 2000 cells of either of the described CTL clones were added, in 100 μl of Iscove medium containing 10% pooled human serum. When clone 210/9 was used, the medium was supplemented with 25 U/ml of IL-2. Supernatant was removed after 24 hours, and TNF content was determined in an assay on WEHI cells, as described by Traversari et al., Immunogenetics 35: 145-152 (1992), the disclosure of which is incorporated by reference. […]

[5] = tested on: CTL IVSB; test: TNF release by CTL IVSB on COS-7 cells cotransfected with HLA-A2 and cDNA pool or fragment; settings: COS-7 cotransfected with cDNA fragment and HLA-A2 gene
Experimental: as §3, §4

| Molecule | recognition of complexes of HLA-A2 and peptide by CTL IVSB [1] | recognition of peptide by CTL 2/9 [2] | recognition of complexes of HLA-A2 and peptide by CTL 210/9 [3] | recognition by CTL 210/9 of antigen on transfected cells [4] | TNF release from / recognition by CTL IVSB [5] |
| --- | --- | --- | --- | --- | --- |
| Tyr Met Asn Gly Thr Met Ser Gln Val (YMNGTMSQV) [SEQ ID NO: 2, tyrosinase derived nonapeptide presented by HLA-A2] | recognition; also recorded: recognized | not | not recognized; also recorded: did not recognize |  |  |
| B1 |  |  |  | recognized | did not |
| B2 |  |  |  |  | provoked TNF release |
